From US20200123208A1, “PEPTIDES AND NEMATICIDAL COMPOSITIONS” (priority 2017, published 2020)

Experiments:
Assay type in all cases: in vivo
[1] = system: Meloidogyne incognita infective stage juveniles (J2s); assay: Chemosensory (chemotaxis) assay towards root exudate, M. incognita J2s; settings: M. incognita J2s, 100 μM uNLP, 24 h; mean+/-SEM
Protocol: (§1) Predicted uNLPs from both M. incognita and G. pallida were synthesised by EZBiolab and dissolved into pH adjusted ddH2O to make a 5 mM stock which was aliquoted and stored at −20° C. J2s of both M. incognita and G. pallida were incubated for 24 hours in 200 μl of each peptide in a 24 well plate (SPL Lifesciences, South Korea) at a defined concentration.
A 60 mm Petri dish was divided into two segments, a positive and a negative side, with a 0.5 cm ‘dead zone’ either side of the centre point. The petri dish was filled with 15 ml of 0.25% w/v agar which was allowed to solidify. 3 ml of 0.25% w/v agar slurry in spring water (pH 7, agitated with a magnetic stirrer for several hours to give a smooth consistency) was added to the petri dish and spread evenly over the surface. Root diffusate (attractant) and water only (control) 0.25% agar plugs were embedded in the agar slurry, either side of the assay arena. Root diffusate was collected from 10 tomato plants, aged 3-6 weeks in 1 litre pots, by pouring 500 ml of ddH2O through the soil three times. Diffusate from each plant was combined, filter sterilised and stored at 4° C. for a maximum of 1 month. Root diffusate agar plugs were made by melting 1.25% agar in ddH2O, cooling to 50° C. before mixing with 4 parts of root diffusate. The agar was then allowed to solidify at room temperature. 100 uNLP pre-treated M. incognita or G. pallida J2s were added by pipette to the centre of the plate. J2s which moved out of the ‘dead zone’ after 3 hours were counted and their location (+/−) scored. The distribution of J2s were used to create a chemotaxis index for each plate, which formed one replicate, a total of 10 replicates where completed for each uNLP treatment.

[2] = system: Meloidogyne incognita J2s; assay: Tomato invasion assay, M. incognita J2s; settings: 100 μM uNLP, 24 h, tomato seedlings, normalised to negative control
Protocol: as §1
(§2) Tomato seeds were sterilised with 2.5% NaOCl for 15 minutes, washed 5 times in ddH2O and germinated on 0.5% Murashige and Skoog plates at 23° C. […] Invasion assays were performed by mixing 500 pre-treated M. incognita or G. pallida J2s with agar slurry and a single tomato seedling (2 days post germination) in a 6 well plate. Assays were left at 23° C. for 24 hours in the case of M. incognita and at 18° C. for 24 hours in the case of G. pallida under a 16 hour light and 8 hour darkness cycle. Seedlings were stained using acid fuschin [69] and the number of nematodes within the roots counted.

[3] = system: Meloidogyne incognita J2s; assay: B. subtilis and C. reinhardtii plant protection assay, M. incognita; settings: tomato
Protocol: as §2
B. subtilis were grown overnight in LB media containing ampicillin (100 μg/ml) at 37° C. with shaking, and harvested in the log phase of growth determined by measuring OD600nm. Five ml of culture at 0.5 OD was spun down and the pellet mixed with 3 ml of agar slurry and 500 J2s from either G. pallida or M. incognita. C. reinhardtii clones were grown at 23° C. with shaking, cultures in the log phase were measured at OD750 and 5 ml of culture at 0.5 OD was pelleted by centrifugation. C. reinhardtii pellets were mixed with 3 ml of agar slurry and 500 J2s from either G. pallida or M. incognita. Plant invasion assays were performed as described above.
uNLP secretion inserts, and vector pChlamy_3 were digested using Kpnl/Xbal (New England Biolabs, USA), ligated using T4 ligase (New England Biolabs, USA), and cloned into Escherichia coli One Shot® TOP10 chemically competent cells (Life Technologies, USA) following manufacturer's instructions. Ampicillin (Sigma Aldrich, USA) was used to select E. coli containing the pChlamy_3 plasmid, which was subsequently extracted using the High Pure Plasmid Isolation Kit (Roche) and sequenced (Eurofins Genomics, UK) to identify correct clones. C. reinhardtii was transformed by electroporation following manufacturer's instructions (GeneArt® Chlamydomonas Engineering Kit, Life Technologies) and individual colonies grown on TAP-Agar-Hygromycin plates (10 μg/mL) (Sigma Aldrich, USA) at 23° C. Colonies were picked and grown at 23° C. in 100 ml TAP growth media (Invitrogen, USA) with constant orbital agitation. qRT-PCR was performed to identify clones with the highest level of uNLP expression, which were then selected for downstream assays (pChlamy universal FWD: […], nlp-15b REV: CTACTAGTCGAGGCCGGTA; Mi-nlp-9f REV: GAACGGGCGGATGAAGTAG).
uNLP secretion inserts, and vector pBE-S were digested using Xbal/Mlul (New England Biolabs, USA), ligated using T4 ligase (New England Biolabs, USA), and cloned into E. coli One Shot® TOP10 chemically competent cells (Life Technologies, USA) following manufacturer's instructions. […]

[4] = system: mixed-stage Caenorhabditis elegans; assay: C. elegans chemotaxis assay (non-target nematode); settings: 100 μM, 24 h, no statistically significant impact; for chemotaxis index (Cl) towards sodium acetate: control 0.4269; for chemotaxis index (Cl) towards pyrazine: control 0.4904; for chemotaxis index (Cl) towards diacetyl: control 0.6638; for chemotaxis index (Cl) towards benzaldehyde: control 0.7026
Protocol: C. elegans wild-type N2 Bristol strain were obtained from the C. elegans Genomics Center and maintained on a Escherichia coli (strain OP50) lawn on nematode growth medium (NGM) agar plates (3 g/l NaCl, 17 g/l agar, 2.5 g/l peptone, 5 mg/l cholesterol, 25 mM KH2PO4 (pH 6.0), 1 mM CaCl2, 1 mM MgSO4) at 20° C.. Chemotaxis assays were performed in a 9 cm diameter Petri dish on NGM agar which was split into a positive and negative side with a central ‘dead zone’ of 1.5 cm diameter. 100 mixed-staged C. elegans were washed three times in M9 buffer and soaked in 100 μM PPN uNLP, or M9 vehicle control for 24 hours. 2 μl of 50 mM sodium acetate, 0.5% pyrazine, 0.5% benzaldehyde or 0.5% diacetyl was spotted onto the positive side, 2 μl of ddH2O was spotted onto the negative side. Pyrazine, benzaldehyde and diacetyl volatile attractants were assayed immediately whereas the water soluble sodium acetate was assayed 18 hours following addition to the plate. Assays were maintained in the dark at 20° C., and counted after 1 hour.

[5] = system: Steinernema carpocapsae infective juveniles; assay: S. carpocapsae host-finding assay (non-target nematode); settings: S. carpocapsae IJs, 100 μM, 24 h; no statistically significant impact; control 0.2315
Protocol: S. carpocapsae were cultured in Galleria mellonella at 23° C. Infective juveniles (IJs) were collected using a White trap in PBS. Freshly emerged IJs were used for each assay. 100 IJs were incubated for 24 hours in 100 μM of selected uNLPs, and host-finding assays performed as in Morris et al..

[6] = system: Meloidogyne incognita J2s; assay: Serotonin-induced stylet thrusting assay, M. incognita J2s; settings: 100 μM uNLP, 24 h, 5 mM serotonin
Protocol: as §1
Stylet thrusting assays where performed by incubating 100 M. incognita or G. pallida J2s for 15 minute in 5 mM or 2 mM serotonin (Sigma Aldrich, USA), respectively. J2s were placed on a glass slide and stylet thrusts were counted for randomly selected J2s, for 1 minute each. Counting took place for a maximum of 15 minutes. Longer incubations yielded inconsistent results. At least 30 J2s were counted for each neuropeptide treatment.

## GGGRYFIRPFADQ [Mi-NLP-9f, predicted unamidated NLP of Meloidogyne incognita]
[1]
  chemotaxis index (Cl) towards root exudate: −0.26+/−0.224
[2]
  host invasion compared to controls: 28.22%+/−5.253
[3]; C. reinhardtii cultures secreting the uNLP
  M. incognita invasion relative to untransformed C. reinhardtii: 10.32%+/−10.32
[4]
  chemotaxis index (Cl) towards sodium acetate: 0.5261+/−0.064
  chemotaxis index (Cl) towards pyrazine: 0.4599+/−0.087
  chemotaxis index (Cl) towards diacetyl: 0.6+/−0.092
  chemotaxis index (Cl) towards benzaldehyde: 0.7463+/−0.047
[5]
  insect host-finding index (Cl) towards Galleria mellonella: 0.2462+/−0.070

## MVSWQPV [Mi-NLP-40, predicted unamidated NLP of Meloidogyne incognita]
[1]
  chemotaxis index (Cl) towards root exudate: −0.04+/−0.04726
[6]
  rate of serotonergic-induced stylet thrusting compared with controls: 210%+/−21.35
[3]; B. subtilis cultures secreting the uNLP
  M. incognita invasion relative to control: 23.72%+/−5.448
[4]
  chemotaxis index (Cl) towards sodium acetate: 0.4820+/−0.115
  chemotaxis index (Cl) towards pyrazine: 0.5018+/−0.039
  chemotaxis index (Cl) towards diacetyl: 0.5858+/−0.097
  chemotaxis index (Cl) towards benzaldehyde: 0.6686+/−0.065
[5]
  insect host-finding index (Cl) towards Galleria mellonella: 0.3057+/−0.082
